Laboratory results reported in patent EP3784230B1, “THE USE OF TERPENIC COUMARINE DERIVATIVE MOLECULES IN THE TREATMENT OF CANCER DISEASE” (T.C. Istanbul Medipol Universitesi, priority 2018, dated 2019).
Like-named read-outs stand apart in the source and are kept apart here.

What was measured:
A498 = experiment: Cytotoxic activity (IC50) on cancer cell line A498; type: cell-based; details: Homo sapiens, read-out: Cytotoxic Activity ( IC 50 )
Excerpt: (§1) The inventors have determined the cytotoxic activity (IC 50 values) of the compounds according to the invention together with various agents present in the prior art on cell lines of different types of cancer.

A673 = experiment: Cytotoxic activity (IC50) on cancer cell line A673; type: cell-based; details: Homo sapiens, read-out: Cytotoxic Activity ( IC 50 )
Excerpt: as §1

TC32 = experiment: Cytotoxic activity (IC50) on cancer cell line TC32; type: cell-based; details: Homo sapiens, TC-32, read-out: Cytotoxic Activity ( IC 50 )
Excerpt: as §1

UO31 cell line [1] = experiment: Cytotoxic activity (IC50) on kidney cancer cell line UO31; type: cell-based; details: Homo sapiens, UO-31; U031 (kidney cancer cell line); read-out: Cytotoxic Activity ( IC 50 )
Excerpt: as §1
The UO31 cell line is known to be the kidney cancer cell line. Taxol, vinblastine and vincristine anti-cancer agents are used against the kidney cancer in the state of the art.

KM12 = experiment: Cytotoxic activity (IC50) on cancer cell line KM12; type: cell-based; details: Homo sapiens, read-out: Cytotoxic Activity ( IC 50 )
Excerpt: as §1

COLO205 = experiment: Cytotoxic activity (IC50) on cancer cell line COLO205; type: cell-based; details: Homo sapiens, COLO 205, read-out: Cytotoxic Activity ( IC 50 )
Excerpt: as §1

UO31 cell line [2] = details: Ferguson R.E. et al., Int. J. Cancer 2005, 115, 155-163, read-out: IC 50 value; cited from earlier work

| Compound | IC50 (A498) [µM] | IC50 (A673) [µM] | IC50 (TC32) [µM] | IC50 (UO31 cell line [1]) [µM] | IC50 (KM12) [µM] | IC50 (COLO205) [µM] | IC50 (UO31 cell line [2]) [µM] |
| --- | --- | --- | --- | --- | --- | --- | --- |
| C=C1CC[C@@H]2[C@](C)(COC(C)=O)[C@@H](O)CC[C@@]2(C)[C@@H]1COc1ccc2ccc(=O)oc2c1 [EXAMPLE MOLECULE III] | > 50 | > 50 | > 50 | 0.017 | > 50 | > 50 | – |
| C=C1CC[C@@H]2C(C)(C)[C@@H](O)CC[C@@]2(C)[C@@H]1COc1ccc2ccc(=O)oc2c1 [EXAMPLE MOLECULE II] | 20 | > 50 | > 50 | 0.38 | 9.1 | > 50 | – |
| C=C1CC[C@@H]2[C@](C)(COC(C)=O)[C@H](O)CC[C@@]2(C)[C@@H]1COc1ccc2ccc(=O)oc2c1 [EXAMPLE MOLECULE IV] | > 50 | > 50 | > 50 | 0.37 | > 50 | > 50 | – |
| C=C1CC[C@@H]2C(C)(C)[C@H](O)CC[C@@]2(C)[C@@H]1COc1ccc2ccc(=O)oc2c1 [EXAMPLE MOLECULE I] | 21 | > 50 | 45 | 0.75 | 2.5 | 19 | – |
| C=C1CC[C@@H]2[C@](C)(C=O)[C@@H](O)CC[C@@]2(C)[C@@H]1COc1ccc2ccc(=O)oc2c1 [EXAMPLE MOLECULE V] | > 50 | > 50 | > 50 | 0.024 | > 50 | > 50 | – |
| C=C1CC[C@@H]2C(C)(C)C(=O)CC[C@@]2(C)[C@@H]1COc1ccc2ccc(=O)oc2c1 [REFERENCE MOLECULE III] | > 50 | > 50 | > 50 | 11 | > 50 | > 50 | – |
| C/C(=C\COc1ccc2ccc(=O)oc2c1)CC/C=C(\C)CCC(O)C(C)(C)O (stereo not drawn) [REFERENCE MOLECULE II] | > 50 | > 50 | > 50 | 7.6 | > 50 | > 50 | – |
| C=C1CC[C@H]2[C@@](C)(CCC(=O)[C@@]2(C)COC(C)=O)[C@@H]1COc1ccc2ccc(=O)oc2c1 [REFERENCE MOLECULE IV] | > 50 | > 50 | > 50 | > 50 | > 50 | > 50 | – |
| CC(C)=CCC/C(C)=C/CC/C(C)=C/COc1ccc2ccc(=O)oc2c1 [REFERENCE MOLECULE I] | > 50 | > 50 | > 50 | 1.8 | > 50 | > 50 | – |
| C=C1CC[C@@H]2[C@](C)(CO)[C@H](O)CC[C@@]2(C)[C@@H]1COc1ccc2ccc(=O)oc2c1 [REFERENCE MOLECULE V] | > 50 | > 50 | > 50 | > 50 | > 50 | > 50 | – |
| CC(=O)O[C@H]1C(=O)[C@@]2(C)[C@H]([C@H](OC(=O)c3ccccc3)[C@]3(O)C[C@H](OC(=O)[C@H](O)[C@@H](NC(=O)c4ccccc4)c4ccccc4)C(C)=C1C3(C)C)[C@]1(OC(C)=O)CO[C@@H]1C[C@@H]2O [taxol] | – | – | – | – | – | – | > 50 |
| CC[C@]1(O)C[C@@H]2CN(CCc3c([nH]c4ccccc34)[C@@](C(=O)OC)(c3cc4c(cc3OC)N(C)[C@H]3[C@@](O)(C(=O)OC)[C@H](OC(C)=O)[C@]5(CC)C=CCN6CC[C@]43[C@@H]65)C2)C1 [vinblastine] | – | – | – | – | – | – | > 100 |
| CC[C@]1(O)C[C@H]2CN(CCc3c([nH]c4ccccc34)[C@@](C(=O)OC)(c3cc4c(cc3OC)N(C=O)[C@H]3[C@@](O)(C(=O)OC)[C@H](OC(C)=O)[C@]5(CC)C=CCN6CC[C@]43[C@@H]65)C2)C1 [vincristine] | – | – | – | – | – | – | > 100 |
